Reference: paper PMC4865845, “A human genome-wide loss-of-function screen identifies effective chikungunya antiviral drugs” (Nature Communications, 2016)
Like-named read-outs stand apart in the source and are kept apart here.

Columns and labels:
CHIKV [1] = experiment: microbe, parasite or virus in culture; type: cell-based, chikungunya virus; details: HEK-293 cells pretreated with dilutions of each drug, CHIKV-GFP, 18 h p.i.
HEK-293 cells = experiment: Cell viability, Cell Proliferation Reagent WST-1; type: cell-based, human; details: read-out: WST-1 IC50
Experimental: To exclude the possible cytotoxic effects, all compounds were additionally tested using the ‘Cell Proliferation Reagent WST-1' (Roche Diagnostics). HEK-293 cells were treated with the same concentrations of the various substances and 18 h later WST-1 was added. Readout was conducted using the EnVision Multilabel Reader (PerkinElmer).

CLK1 = CLK1 (Homo sapiens, UniProt P49759); experiment: CLK1 inhibition by capillary electrophoresis in a microfluidic chip system (LabChip3000); type: biochemical
Sequence of CLK1 (P49759 whole entry): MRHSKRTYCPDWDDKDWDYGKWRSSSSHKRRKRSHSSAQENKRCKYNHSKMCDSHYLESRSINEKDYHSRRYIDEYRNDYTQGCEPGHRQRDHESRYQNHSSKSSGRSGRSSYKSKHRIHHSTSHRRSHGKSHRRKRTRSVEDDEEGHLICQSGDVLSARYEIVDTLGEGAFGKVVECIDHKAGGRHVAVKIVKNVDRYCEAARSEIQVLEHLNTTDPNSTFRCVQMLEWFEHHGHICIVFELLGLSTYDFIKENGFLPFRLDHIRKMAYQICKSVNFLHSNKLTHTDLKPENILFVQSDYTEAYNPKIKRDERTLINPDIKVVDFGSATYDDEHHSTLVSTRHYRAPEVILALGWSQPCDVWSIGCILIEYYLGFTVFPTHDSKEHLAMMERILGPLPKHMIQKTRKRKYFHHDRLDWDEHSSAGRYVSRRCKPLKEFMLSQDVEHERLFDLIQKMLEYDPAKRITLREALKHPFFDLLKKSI

CHIKV replicon = CHIKV replicon dual-luciferase assay (genomic and subgenomic vRNA expression); type: cell-based, chikungunya virus; details: HeLa cells, inhibitor from 1 h p.i., read 8 h p.i.
HeLa cells [2] = experiment: Real-time cell toxicity assay (xCELLigence)
CHIKV C21 [3] = experiment: Single-cycle CHIKV C21 infection, drug 2 h before or 2 h after infection (flow cytometry of capsid; supernatant infectivity on Vero cells); type: cell-based, chikungunya virus
HeLa cells [4] = experiment: Cell viability, CellTiter-Glo kit; details: end of the 1 h infection + 7 h treatment experiment
CHIKV C21 [5] = experiment: Quantitative RT-PCR of cell- and supernatant-associated vRNA; type: cell-based, chikungunya virus; details: HeLa; for vRNA synthesis (cell-associated vRNA) / viral release in the supernatants (supernatant-associated vRNA): CHIKV C21 MOI 50 for 1 h, then drug 7 h: cerulenin 50 μM, TOFA 25 μM, pimozide 10 μM, W7 20 μM, tivozanib 5 μM; for vRNA replication, delayed treatment / viral release, delayed treatment: CHIKV-infected, drugs from 6 to 8 h p.i.
CHIKV C21 [6] = type: in vivo, C57BL/6 mice; details: adult mice pretreated at least 3 days (pimozide 20 mg kg−1 per os; TOFA 25 mg kg−1 i.p.), 18 h p.i.
CHIKV C21 [7] = experiment: Intradermal CHIKV infection model of neonatal mice
CHIKV [8] = type: cell-based, chikungunya virus
[9] = HEK-293 cell viability, 18 h, * = treatment induced <50% cell death
[10] = 0.5 mg kg−1 per os daily from day 7, infected at day 9, continued 21 days

## O=c1cc(-c2ccccc2)oc2ccc(O)cc12 [6-Hydroxyflavone]
CHIKV [1]; Chikungunya virus, HEK293
  IC50: 2600 nM
HEK-293 cells; Homo sapiens, HEK293, 18 h
  IC50: > 60000 nM

## C=CC/C=C\C/C=C\CCCCCCCc1cccc(O)c1C(=O)O [(15:3)-Anacardic acid]
CHIKV [1]
  IC50: 580 nM
HEK-293 cells; [9]
  IC50: 2680 nM

## O=C1Cc2c([nH]c3ccc([N+](=O)[O-])cc23)-c2ccccc2N1 [Alsterpaullone]
CHIKV [1]; Chikungunya virus, HEK293
  IC50: 2 nM
HEK-293 cells; Homo sapiens, HEK293, 18 h
  IC50: 44400 nM

## CCCCn1c2cc(OC)c(Cl)cc2c2ccnc(C)c21 [AnnH14, 9-butyl-6-chloro-7-methoxy-1-methyl-9H-pyrido[3,4-b]indole]
CHIKV [1]; Chikungunya virus, HEK293
  IC50: 1550 nM
CLK1
  IC50: 5020 nM
HEK-293 cells; Homo sapiens, HEK293, 18 h
  IC50: 10600 nM

## COc1ccc2c(c1)[nH]c1c(/C=C/c3ccccc3)nccc12 [AnnH18, (E)-7-methoxy-1-(2-phenylethen-1-yl)-9H-pyrido[3,4-b]indole]
CHIKV [1]; Chikungunya virus, HEK293
  IC50: 1020 nM
CLK1
  IC50: 575 nM
HEK-293 cells; Homo sapiens, HEK293, 18 h
  IC50: 9190 nM

## C#CCn1c2c(Br)nccc2c2ccc(Cl)c(Cl)c21 [AnnH80, 1-bromo-7,8-dichloro-9-(prop-2-yn-1-yl)-9H-pyrido[3,4-b]indole]
other
  melting point: 190 to 193 °C
CLK1
  IC50: 862 nM

## COc1ccc(-c2ccccc2)cc1NS(=O)(=O)c1cc(Cl)cc(Cl)c1O [BMS-303141]
CHIKV replicon
  genomic and subgenomic vRNA synthesis: significant and dose-dependent reduction
HeLa cells [2]
  effect on cell viability: no deleterious effect on cell viability

## CO/C1=C\C(C)=C\[C@@H](C)[C@@H](O)[C@@H](C)C/C(C)=C/C=C/[C@H](OC)[C@@H]([C@@H](C)[C@@H](O)[C@H](C)[C@@]2(O)C[C@@H](O)[C@H](C)[C@@H](C(C)C)O2)OC1=O [Bafilomycin]
CHIKV [1]
  IC50: 0.334 nM
HEK-293 cells; [9]
  IC50: 3 nM
CHIKV C21 [3]; single-cycle CHIKV infection, treatment before or after viral entry
  stage of the viral life cycle affected: specifically blocked CHIKV entry

## C/C=C/C/C=C/CCC(=O)[C@H]1O[C@H]1C(N)=O [Cerulenin]
CHIKV replicon
  genomic and subgenomic vRNA synthesis: significant and dose-dependent reduction
CHIKV [1]; Chikungunya virus, HEK293
  IC50: 3000 nM
HeLa cells [4]
  cell toxicity: no detectable cell toxicity
HEK-293 cells; Homo sapiens, HEK293, 18 h
  IC50: 7570 nM
CHIKV C21 [5]
  vRNA synthesis (cell-associated vRNA): significantly reduced vRNA synthesis
  viral release in the supernatants (supernatant-associated vRNA): strongly inhibited viral release
  vRNA replication, delayed treatment: only a minor impact on vRNA replication
  viral release, delayed treatment: major defect in viral release
HeLa cells [2]
  effect on cell viability: no deleterious effect on cell viability

## CCOC(=O)C1=C(C)NC(C)=C(C(=O)OC)C1c1cccc(Cl)c1Cl (centres unmarked) [Felodipine]
CHIKV [1]; Chikungunya virus, HEK293
  IC50: 3240 nM
HEK-293 cells; Homo sapiens, HEK293, 18 h
  IC50: 12100 nM

## Cc1ccc(F)c(NC(=O)Nc2ccc(-c3cccc4[nH]nc(N)c34)cc2)c1 [Linifanib]
CHIKV [1]; Chikungunya virus, HEK293
  IC50: 2150 nM
HEK-293 cells; Homo sapiens, HEK293, 18 h
  IC50: > 60000 nM

## CCCCCCCCCCC[C@@H](C[C@@H]1OC(=O)[C@H]1CCCCCC)OC(=O)[C@H](CC(C)C)NC=O [Orlistat]
CHIKV [1]; Chikungunya virus, HEK293
  IC50: 820 nM
HEK-293 cells; Homo sapiens, HEK293, 18 h
  IC50: 8670 nM

## Cc1ccc(Nc2nccc(N(C)c3ccc4c(C)n(C)nc4c3)n2)cc1S(N)(=O)=O [Pazopanib]
CHIKV [1]; Chikungunya virus, HEK293
  IC50: 130 nM
HEK-293 cells; Homo sapiens, HEK293, 18 h
  IC50: 1320 nM

## OCCN1CCN(CCCN2c3ccccc3Sc3ccc(Cl)cc32)CC1 [Perphenazine]
CHIKV [1]; Chikungunya virus, HEK293
  IC50: 630 nM
HEK-293 cells; Homo sapiens, HEK293, 18 h
  IC50: 24200 nM

## CC(Cc1ccccc1)NCCC(c1ccccc1)c1ccccc1 (centres unmarked) [Prenylamine]
CHIKV [1]; Chikungunya virus, HEK293
  IC50: 2390 nM
HEK-293 cells; Homo sapiens, HEK293, 18 h
  IC50: 16500 nM

## CNC(=O)c1cc(Oc2ccc(NC(=O)Nc3ccc(Cl)c(C(F)(F)F)c3)cc2)ccn1 [Sorafenib]
CHIKV [1]; Chikungunya virus, HEK293
  IC50: 1110 nM
HEK-293 cells; Homo sapiens, HEK293, 18 h
  IC50: 18200 nM

## COc1cc(N2CCC(N3CCN(C)CC3)CC2)ccc1Nc1ncc(Cl)c(Nc2ccccc2S(=O)(=O)C(C)C)n1 [TAE684]
CHIKV [1]; Chikungunya virus, HEK293
  IC50: 150 nM
HEK-293 cells; Homo sapiens, HEK293, 18 h
  IC50: 2070 nM

## CCCCCCCCCCCCCCOc1ccc(C(=O)O)o1 [TOFA, 5-tetradecyloxy-2-furoic acid]
CHIKV C21 [6]
  CHIKV titres in the footpad (replication): significantly reduced replication
CHIKV replicon
  genomic and subgenomic vRNA synthesis: significant and dose-dependent reduction
CHIKV [1]; Chikungunya virus, HEK293
  IC50: 150 nM
HeLa cells [4]
  cell toxicity: no detectable cell toxicity
HEK-293 cells; Homo sapiens, HEK293, 18 h
  IC50: > 60000 nM
CHIKV C21 [5]
  vRNA synthesis (cell-associated vRNA): significantly reduced vRNA synthesis
  viral release in the supernatants (supernatant-associated vRNA): strongly inhibited viral release
  vRNA replication, delayed treatment: only a minor impact on vRNA replication
  viral release, delayed treatment: major defect in viral release
CHIKV C21 [7]; neonatal mice
  impact on mouse growth: detectable impact on mouse growth
HeLa cells [2]
  effect on cell viability: no deleterious effect on cell viability

## COc1cc2nccc(Oc3ccc(NC(=O)Nc4cc(C)on4)c(Cl)c3)c2cc1OC [Tivozanib]
CHIKV [1]; Chikungunya virus, HEK293
  IC50: 800 nM
HeLa cells [4]
  cell toxicity: no detectable cell toxicity
HEK-293 cells; Homo sapiens, HEK293, 18 h
  IC50: 8340 nM
CHIKV C21 [5]
  vRNA synthesis (cell-associated vRNA): significantly reduced vRNA synthesis
  viral release in the supernatants (supernatant-associated vRNA): strongly inhibited viral release
  vRNA replication, delayed treatment: only a minor impact on vRNA replication
  viral release, delayed treatment: major defect in viral release
CHIKV C21 [7]; [10]
  body weight gain: positive impact on body weight gain
  mortality of CHIKV-infected mice: significant reduction in mortality
  onset of paralysis: protected from the onset of paralysis
CHIKV C21 [7]; 3 days post infection, 0.5 mg kg−1 per os
  CHIKV viral load in organs: significantly reduced CHIKV viral load

## KH-CB19
CHIKV [1]
  IC50: 3360 nM
HEK-293 cells; [9]
  IC50: 10900 nM
CHIKV C21 [3]; Supplementary Fig. 5a
  inhibition of CHIKV infection at early times p.i.: incomplete inhibition

## s38816 (GAACATCTGGATCAAGAGA; chemistry not given here)
CHIKV [8]
  Score_si3: 1.02

## s38817 (GCAAATCTCTCTATCCTTA; chemistry not given here)
CHIKV [8]
  Score_si4: 0.06

## s49211 (sense GTTCCTGGGTGTTCACCTA; chemistry not given here)
CHIKV [8]
  Score_si4: 0.08

## s49212 (sense GATCGTTCCTGGGTGTTCA; chemistry not given here)
CHIKV [8]
  Score_si2: 0.94

## s50141 (sense AGATACCTTTATGAATATA; chemistry not given here) [reference compound]
CHIKV [8]
  Score_si3: -0.76

## s50143 (sense AAATAAATCTGGTGCATTA; chemistry not given here) [reference compound]
CHIKV [8]
  Score_si4: -0.41

## s50641 (sense ACAACTCTGTGCACAACAA; chemistry not given here)
CHIKV [8]
  Score_si4: 0.17

## s50642 (sense CCTTCATGGTGGGACTGTA; chemistry not given here)
CHIKV [8]
  Score_si3: 0.69

## s51651 (sense TGAGCAGTGAGAACCCATA; chemistry not given here)
CHIKV [8]
  Score_si2: 1.55

## s51652 (sense CCAGGCCCATTCTACAATA; chemistry not given here)
CHIKV [8]
  Score_si4: 0.04

## s51653 (sense GCACCTTGCAGGATTGGAA; chemistry not given here)
CHIKV [8]
  Score_si3: 0.68

## s194444 (sense GCTGCGTCTCCCTTCCAAA; chemistry not given here) [reference compound]
CHIKV [8]
  Score_si4: -0.58

## s194476 (sense GCATGCTGCTGGCAGATCA; chemistry not given here)
CHIKV [8]
  Score_si2: 1.47

## s195060 (sense CCAGATCTATGAATTGGAA; chemistry not given here)
CHIKV [8]
  Score_si2: 1.92

## s195061 (sense CTGTATGGCTTCTATATAA; chemistry not given here)
CHIKV [8]
  Score_si4: 1.03

## s195093 (sense AGCTGTCCCTCTTTGCTGT; chemistry not given here) [reference compound]
CHIKV [8]
  Score_si3: -0.16

## s195094 (sense CCTCTTCCACCGCTACTTC; chemistry not given here) [reference compound]
CHIKV [8]
  Score_si2: -0.76

## s195100 (sense GGGTGAATGTAGACCCTGA; chemistry not given here)
CHIKV [8]
  Score_si3: 1.95

## s195299 (sense ACACATATGTGATCAAGCT; chemistry not given here)
CHIKV [8]
  Score_si4: 0.72

## s195642 (sense GGTGAGGACAAGTTCCAGT; chemistry not given here)
CHIKV [8]
  Score_si3: 0.49

## s195643 (sense CCCTAGGCGCTGGATTTTG; chemistry not given here)
CHIKV [8]
  Score_si4: 0.23

## s195938 (sense ATTTATCTCTGCATCGACA; chemistry not given here) [reference compound]
CHIKV [8]
  Score_si3: -0.51

## s195939 (sense GCGGCTGATTTATCTCTGC; chemistry not given here) [reference compound]
CHIKV [8]
  Score_si4: -0.22
